Data as given in patent US20100144802A1, “Small Molecule Inhibitors for Immune Modulation” (priority 2007, published 2010).

Key:
[1] = tested on: macrophages; assay: Macrophage intracellular cytokine production by flow cytometry; type: cell-based, human; conditions: 4 hrs
Experimental: PBMCs from normal human donors (n=5) were incubated for 24 hrs at 37° C., 5% CO2, in either medium (RPMI 1640+10% fetal bovine serum) or medium supplemented with 5 μM WP1066. Cells were then stained with fluorescent antibodies to CD11b and either CD80 or CD86 and analyzed by flow cytometry. Glioma-infiltrating microglia were purified from freshly resected GBM patient tumor tissue (n=3) and incubated in either medium or medium supplemented with WP1066 (1 μM). After incubation, microglia (CD11b^+/CD45^+) were double stained with fluorescent antibodies to CD11b and either CD80 or CD86, and analyzed by flow cytometry. Numbers in the upper right quadrant of each graph denote the percentage of CD11b^+ gated cells that express either CD80 or CD86. […] Cells were then labeled with CD11b/CD14 macrophage markers and stained and analyzed for intracellular cytokine production. Percentages of macrophages that were CD11b^+/CD14^+ and also positive for the respective cytokine were calculated by flow cytometry analysis. A scatter plot representative of all samples analyzed for macrophage intracellular cytokine production was determined with LPS-treated cells (circles) and WP1066-treated cells (diamonds). The black bars denote the mean values of each subgroup, p values determining statistical significance between LPS-stimulated groups and WP1066-stimulated groups were determined using Student's t test (NS, not statistically significant). […] Carboxyfluoroscein succinimidyl ester (CFSE)-labeled CD8^+ T cells isolated from newly diagnosed GBM patients were incubated with untreated autologous APCs (CD11b^+/CD14^+) and anti-CD3 antibody, with anti-CD3 antibody+anti-CD28 antibody, and with LPS-treated (5 μg/mL) autologous APCs or WP1066-treated (1 μM) autologous APCs. In all cases, cells were incubated for 4 days at 37° C., 5% CO2, followed by surface staining for T cell markers (CD3, CD8) and analysis by flow cytometry. The number on each plot indicates the percentage of CD8^+ gated cells that have undergone cell division via CFSE dilution. […] For (A-C), modified Percoll density gradient (1.083 g/mL) centrifugation was used to isolate PBMCs of both GBM patients and normal donors. CD8+ T cells were isolated by magnetic bead separation and then labeled with CFSE. Autologous APCs were purified from the above density gradient buffy-coat layer by negative selection, using a monocyte bead isolation kit and magnetic separation column. Purity of all cell populations was determined to be at least 97% by flow cytometry. Autologous microglia/macrophages from GBM patients were purified from freshly resected human glioma/brain tissue using a modified Percoll gradient isolation technique. All APCs were treated with the respective stimulants (control medium alone, LPS, or WP1066) for 24 hours and then washed prior to incubation with T cells in the proliferation assay. […] T cells from the same patients were isolated with human CD3 microbeads and a magnetic separation column, with the exception of one patient who lacked sufficient PBMCs for both monocyte and T cell isolations. Monocytes or T cells seeded at a density of 1×10^6 cells per well in 6-well culture plates and were incubated at 37° C., 5% CO2, with either the medium or medium supplemented with 5 μM WP1066. After 2 hours, monocytes and T cells were stimulated for 5 minutes with 2 μg/mL LPS and 5 μg/mL anti-CD3 antibody, respectively, in the presence or absence of WP1066. […]

[2] = tested on: tumor cell types, including malignant gliomas; conditions: variety of tumor cell types; cited from earlier work
[3] = tested on: monocytes isolated from GBM patients; assay: Immunoblotting of signaling proteins in GBM patient monocytes; type: cell-based, human; conditions: 5 μM
Experimental: (§1) To determine how WP1066 induces these potent immune responses, T cells and monocytes isolated from GBM patients were treated with WP1066 and subsequently lysed and analyzed by immunoblotting for critical signaling proteins. […] The tyrosine phosphorylation of Syk initiates downstream signaling events during human monocyte activation, whereas the phosphorylation of Tyr319 in Zap-70 plays a critical role in mediating T cell activation via signaling through the T cell receptor. Raeder, E. M. et al. J Immunol 163, 6785-93 (1999); Williams, B. L. et al. EMBO 18, 1832-1844 (1999). Both Syk and ZAP-70 can be phosphorylated through autophosphorylation and transphosphorylation. […] The tyrosine phosphorylation of critical signaling proteins induced/enhanced by WP1066 are likely pivotal to the WP1066-induced restoration of immune function in GBM patients and explains the mechanisms of potent immune activation.
(§2) PBMCs from normal human donors (n=5) were incubated for 24 hrs at 37° C., 5% CO2, in either medium (RPMI 1640+10% fetal bovine serum) or medium supplemented with 5 μM WP1066. Cells were then stained with fluorescent antibodies to CD11b and either CD80 or CD86 and analyzed by flow cytometry. Glioma-infiltrating microglia were purified from freshly resected GBM patient tumor tissue (n=3) and incubated in either medium or medium supplemented with WP1066 (1 μM). After incubation, microglia (CD11b^+/CD45^+) were double stained with fluorescent antibodies to CD11b and either CD80 or CD86, and analyzed by flow cytometry. Numbers in the upper right quadrant of each graph denote the percentage of CD11b^+ gated cells that express either CD80 or CD86. […] Cells were then labeled with CD11b/CD14 macrophage markers and stained and analyzed for intracellular cytokine production. Percentages of macrophages that were CD11b^+/CD14^+ and also positive for the respective cytokine were calculated by flow cytometry analysis. A scatter plot representative of all samples analyzed for macrophage intracellular cytokine production was determined with LPS-treated cells (circles) and WP1066-treated cells (diamonds). The black bars denote the mean values of each subgroup, p values determining statistical significance between LPS-stimulated groups and WP1066-stimulated groups were determined using Student's t test (NS, not statistically significant). […] Carboxyfluoroscein succinimidyl ester (CFSE)-labeled CD8^+ T cells isolated from newly diagnosed GBM patients were incubated with untreated autologous APCs (CD11b^+/CD14^+) and anti-CD3 antibody, with anti-CD3 antibody+anti-CD28 antibody, and with LPS-treated (5 μg/mL) autologous APCs or WP1066-treated (1 μM) autologous APCs. […] Purity of all cell populations was determined to be at least 97% by flow cytometry. […]

[4] = mouse, in vivo
Experimental: (§3) FIG. 1 depicts the novel small molecule inhibitor, WP1066, that inhibits Stat-3 activity and has significant central nervous system (CNS) and glioma tumor penetration in vitro and in vivo. FIG. 1A provides the chemical structure of WP1066. […] WP1066 was injected intraperitoneally (IP) at doses of 100 mg/kg every other day for two weeks in nude mice. Specifically, plasma, CNS tissue, and U87-MG flank tumors were harvested and, after extraction, were analyzed for WP1066 content using tandem liquid chromatography/mass spectrometry. […] Cells were stained with fluorescently-labeled anti-CD3 and anti-CD11b antibodies, and propidium iodide (PI) and analyzed by flow cytometry. Macrophages and T cells were gated on CD11b^+ and CD3^+ populations, respectively, and cell death (%) was quantified as CD11b^+PI^+ or CD3^+PI^+ populations in the respective plots. Plots represent the 5 μM maximum dose (clear histogram) compared to control untreated cells (shaded histogram) incubated under similar conditions.

[5] = tested on: T cells; assay: Immunoblotting of signaling proteins in GBM patient T cells; type: cell-based, human; conditions: 5 μM
Experimental: as §1
PBMCs from normal human donors (n=5) were incubated for 24 hrs at 37° C., 5% CO2, in either medium (RPMI 1640+10% fetal bovine serum) or medium supplemented with 5 μM WP1066. Cells were then stained with fluorescent antibodies to CD11b and either CD80 or CD86 and analyzed by flow cytometry. […] After incubation, microglia (CD11b^+/CD45^+) were double stained with fluorescent antibodies to CD11b and either CD80 or CD86, and analyzed by flow cytometry. […] Cells were then labeled with CD11b/CD14 macrophage markers and stained and analyzed for intracellular cytokine production. Percentages of macrophages that were CD11b^+/CD14^+ and also positive for the respective cytokine were calculated by flow cytometry analysis. A scatter plot representative of all samples analyzed for macrophage intracellular cytokine production was determined with LPS-treated cells (circles) and WP1066-treated cells (diamonds). The black bars denote the mean values of each subgroup, p values determining statistical significance between LPS-stimulated groups and WP1066-stimulated groups were determined using Student's t test (NS, not statistically significant). […]

[6] = tested on: intracerebral B16; assay: Survival of nude mice with established intracerebral B16; type: in vivo
[7] = tested on: CD80 and CD86; assay: Costimulatory molecule expression (CD80, CD86) by flow cytometry; type: cell-based, human
Experimental: as §2, with “APCs. In all cases, cells were incubated for 4 days at 37° C., 5% CO2, followed by surface staining for T cell markers (CD3, CD8) and analysis by flow cytometry.” for “APCs.”

[8] = tested on: normal donor PBMCs; assay: Cell death (propidium iodide) of macrophages and T cells in PBMCs; type: cell-based, human; conditions: 1 nM-5 μM, 2 and 4 hours
Experimental: as §3

[9] = Plasma concentration after oral administration; type: in vivo; conditions: mice
Description: Patients with malignant human gliomas have a preponderance of immunosuppressive cytokines, a lack of effector/activated T cells, enhanced regulatory T cells (Tregs), and inadequate antigen-presentation functional activity, contributing to their profound immunosuppression. Known immune stimulators within these patients are insufficient to overcome these influences. Therefore, we investigated whether a pharmacological derivative of the natural compound, caffeic acid (WP1066)(FIG. 1A), a small molecule inhibitor of Stat-3 activity, can (in physiologically relevant doses) attenuate these suppressed immune responses.

[10] = tested on: intracerebral B16 cells; assay: Survival of C57BL/6J mice with established intracerebral tumors; type: in vivo
[11] = tested on: T cells isolated from peripheral blood of GBM patients; assay: T cell proliferation (CFSE dilution) with treated antigen-presenting cells; type: cell-based, human; conditions: GBM patient T cells with treated macrophages/APCs; WP1066 1 μM, LPS 5 μg/mL, 4 days
Experimental: PBMCs from normal human donors (n=5) were incubated for 24 hrs at 37° C., 5% CO2, in either medium (RPMI 1640+10% fetal bovine serum) or medium supplemented with 5 μM WP1066. Cells were then stained with fluorescent antibodies to CD11b and either CD80 or CD86 and analyzed by flow cytometry. Glioma-infiltrating microglia were purified from freshly resected GBM patient tumor tissue (n=3) and incubated in either medium or medium supplemented with WP1066 (1 μM). After incubation, microglia (CD11b^+/CD45^+) were double stained with fluorescent antibodies to CD11b and either CD80 or CD86, and analyzed by flow cytometry. […] Cells were then labeled with CD11b/CD14 macrophage markers and stained and analyzed for intracellular cytokine production. Percentages of macrophages that were CD11b^+/CD14^+ and also positive for the respective cytokine were calculated by flow cytometry analysis. A scatter plot representative of all samples analyzed for macrophage intracellular cytokine production was determined with LPS-treated cells (circles) and WP1066-treated cells (diamonds). The black bars denote the mean values of each subgroup, p values determining statistical significance between LPS-stimulated groups and WP1066-stimulated groups were determined using Student's t test (NS, not statistically significant). […] Purity of all cell populations was determined to be at least 97% by flow cytometry. […]

[12] = tested on: Foxp3; assay: Intracellular Foxp3 expression in iTreg differentiation and natural Tregs by flow cytometry; type: cell-based, C57BL/6J mice; conditions: 0, 0.1 and 1 μM, more than 96 hours
Experimental: CD4+CD25−CD62L^hi naïve T cells from C57BL/6J mice were stimulated by plate-bound anti-CD3 (2 μg/ml) and soluble anti-CD28 (2 μg/ml) antibodiesin the presence of TGF-β1 (1 ng/ml) plus hIL-2 (200 U/ml) with addition of different concentrations of WP1066 (0, 0.1, and 1 μM) for inducible Treg (iTreg) differentiation; CD4+CD25+ T cells (natural Tregs [nTreg]) were stimulated by plate-bound anti-CD3 (2 μg/ml) antibodies in the presence of hIL-2 (200 U/ml) with addition of different concentrations of WP1066 (0, 0.1, and 1 μM). More than 96 hours after stimulation, the cells were analyzed for intracellular Foxp3 expression using flow cytometry.

[13] = target: T1, Stat-3 (Homo sapiens, UniProt P40763); assay: Phosphorylated Stat-3 by intracellular staining and flow cytometry in PBMCs; type: cell-based; conditions: doses achievable in vivo (1 nM-5 μM)
T1 construct: normal donor peripheral blood mononuclear cells (PBMCs) were assessed for phosphorylated Stat-3 activity; endogenous in cells; host or cells: normal donor peripheral blood mononuclear cells (PBMCs)

[14] = tested on: CD80 and CD86; conditions: cited from earlier work
[15] = normal donors and GBM patients, 5 μM

T1 sequence (P40763 whole entry): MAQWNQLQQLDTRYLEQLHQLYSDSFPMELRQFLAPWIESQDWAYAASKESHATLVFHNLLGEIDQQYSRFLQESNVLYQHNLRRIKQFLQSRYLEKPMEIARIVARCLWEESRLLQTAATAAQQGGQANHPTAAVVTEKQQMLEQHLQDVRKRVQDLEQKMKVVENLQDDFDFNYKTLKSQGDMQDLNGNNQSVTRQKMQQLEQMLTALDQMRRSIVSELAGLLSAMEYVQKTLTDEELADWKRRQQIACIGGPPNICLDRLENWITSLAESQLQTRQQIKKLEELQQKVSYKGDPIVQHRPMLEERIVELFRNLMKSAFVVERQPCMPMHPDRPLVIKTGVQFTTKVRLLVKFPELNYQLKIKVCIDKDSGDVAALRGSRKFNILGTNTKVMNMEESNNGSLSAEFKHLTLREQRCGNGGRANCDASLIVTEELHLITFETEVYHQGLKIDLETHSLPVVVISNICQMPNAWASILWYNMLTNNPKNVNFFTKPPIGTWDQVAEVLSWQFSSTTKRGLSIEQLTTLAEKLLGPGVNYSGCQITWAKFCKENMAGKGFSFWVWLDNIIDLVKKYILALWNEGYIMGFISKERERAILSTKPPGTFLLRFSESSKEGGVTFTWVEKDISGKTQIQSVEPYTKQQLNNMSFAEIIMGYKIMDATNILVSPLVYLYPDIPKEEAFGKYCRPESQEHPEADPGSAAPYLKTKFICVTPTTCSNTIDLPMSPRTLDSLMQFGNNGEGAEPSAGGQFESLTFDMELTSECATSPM

C[C@H](NC(=O)/C(C#N)=C/c1cccc(Br)n1)c1ccccc1 [WP1066]
IL-2 induction from macrophages [1, 15]: induce
IL-4 induction from macrophages [1, 15]: induce
IL-12 induction from macrophages [1, 15]: induce
IL-15 induction from macrophages [1, 15]: induce
proapoptotic activity [2]: proapoptotic activity
tyrosine phosphorylation in monocytes and T cells ([3]; proteins of 70 to 75 KDa and 50 to 60 KDa, also T cells): induced or enhanced
levels of p57/p59-Hck ([3]; monocytes): increased
phospho-p72Syk (Tyr352) ([3]; monocytes): induced
total protein level of Syk ([3]; monocytes): didn't affect
uptake of the compound by tumors versus other tissue [4]: higher drug content than any other tissue
central nervous system (CNS) concentrations ([4]; nude): 0.185 µM
concentrations in tumor ([4]; nude): 1070 nM
concentrations per gram of tumor ([4]; nude): 362 μg/gram
concentrations within orthotopic gliomas ([4]; nude): 1070 nM
levels of p56-Lck [5]: increased
phospho-ZAP-70 (Tyr319) [5]: induced
total protein level of ZAP-70 [5]: markedly decreased
clinical effectiveness (survival) in immune incompetent background [6]: abrogates the clinical effectiveness
CD80 and CD86 on tumor-infiltrating microglia/macrophages from GBM patients ([7]; 1 μM): capable of upregulating CD80 and CD86
CD80 and CD86 on normal donor PBMCs ([7]; 5 μM, 24 hrs): capable of upregulating CD80 and CD86
up regulation of costimulation in human monocytes ([7]; incubated with IL-10 and TGF-β (data not shown)): can be achieved
cell viability [8]: not compromised
plasma concentrations [9]: > 2000 nM
immunological memory on rechallenge ([10]; animals surviving longer than 78 days, tumor cells into contralateral hemisphere): minimal immunological memory was induced
anti-tumor efficacy (survival) ([10]; established intracerebral B16 cells, oral gavage, compared with B16EGFRvIII model): Identical anti-tumor efficacy
efficacy after in vivo depletions of CD4+ and CD8+ T cells ([10]; established intracerebral syngeneic murine models): abrogates the efficacy
T cell proliferation [11]: potently induced T cell proliferation
Foxp3 expression in natural Tregs [12]: downregulates Foxp3 expression
Foxp3 induction in peripheral T cells ([12]; iTreg differentiation): inhibits Foxp3 induction
inhibition of Stat-3 within immune cells [13]: inhibit Stat-3

lipopolysaccharide [LPS, reference compound]
IL-1β levels compared with WP1066 ([1]; LPS 5 μg/mL): significantly higher levels
up regulating costimulatory molecules on microglia isolated directly from GBM patients [14]: totally insufficient
T cell proliferation [11]: unable to induce any T cell proliferation
